Results on five compounds are retold here after ChEMBL document CHEMBL1201862, “PubChem BioAssay data set” (2004).

The test system of test [1] is Vero. Nature of the test: cells. It counts as functional, cell-based. The settings on record: Chlorocebus sabaeus.
Test [2] relates to Vero. Nature of the test: cells. As to conditions: Chlorocebus sabaeus. The format is functional.
The next test addresses Cysteine protease ATG4B (Homo sapiens, UniProt Q9Y4P1). The format is functional.
The target in test [3] is Voltage-gated inwardly rectifying potassium channel KCNH2 (Homo sapiens, UniProt Q12809). As to the kind of experiment: hERG protection from proarrhythmic block, potency, dose response, cell-based, thallium flux (AID 2121). It counts as ADME.
A further test addresses Phospholipase A2 (Homo sapiens, UniProt P04054). It counts as functional.
Test [4] is described as follows: inhibitors of intracellular T. cruzi replication, confirmation, NIH3T3 host cells, beta-gal luminescence (AID 2044).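 Also: intracellular parasites grown in NIH/3T3 mouse fibroblasts as host cells; luminescent beta-galactosidase reporter signal from transgenic T. cruzi replicating inside host cells; inhibitors lower the luminescence signal.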 It counts as functional, cell-based.
The nature of test [5]: cytotoxicity toward NIH3T3 fibroblasts, dose response, counter-screen, cell-based, ATP luminescence, mouse fibroblasts (AID 2010).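 Also: cells exposed to compound for about 90 hours before reading.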 It counts as functional. A general note: Counterscreens check selectivity or assay interference.
A short description of test [6]: THP-1 cell cytotoxicity, dose response, cytotoxicity control for non-replicating M. tuberculosis project (AID 489025). It counts as functional.
The nature of test [7]: growth suppression of PTEN-null colon cells, dose response, cell-based, HCT116 PTEN knockout (AID 1047).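 Also: HCT116 colon tumor cells with PTEN knocked out; cells exposed to compound for 60 hours before readout; potency for loss of cell viability measured by luminescence.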 It counts as functional.
A short description of the next test: cells. It counts as functional.
Test [8] can be described thus: cytotoxicity in KRAS-transformed pancreatic duct cells, primary screen, cell-based, fluorescence, HTS (AID 431).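 Also: cell line used: HPDE-C7K.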 The settings on record: Homo sapiens. The format is functional.
Test [9] is described as follows: cytotoxicity in HPDE-C7 cells, cell-based, fluorescence, HTS (AID 430). It counts as functional. The settings on record: Homo sapiens.
A short description of test [10]: cytotoxicity in HEK-293T cells, dose response, cytotoxicity control for TCR NF-kB inhibitor project, luminescence, T-cell screen hits (AID 489026).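 Also: cells exposed to compound about 14 hours before the viability readout.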 It counts as functional, cell-based.
Test [11] is described as follows: HepG2 cell cytotoxicity, dose response, cytotoxicity control for Shn3 inhibitor project, CellTiter-Glo, cherry-picked (AID 624134). It counts as functional, cell-based.
Test [12] can be described thus: control 3'UTR Renilla luciferase suppression, dose response, counter-screen for Shn3 inhibitor project, cell-based, Clone20-Shn3RL, cherry-picked (AID 624133). It counts as functional.
Test [13] is described as follows: Shn3 3'UTR reporter inhibitors, dose response, cell-based, Clone20 osteoblasts, firefly luciferase, cherry-picked (AID 624132).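 Also: firefly luciferase luminescence from reporter carrying the Shn3 3'UTR in osteoblasts.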 The format is functional.
For test [14], the target named is Sphingosine 1-phosphate receptor 2 (Homo sapiens, UniProt O95136). As to the kind of experiment: Dose Response Cell Based Assay for Antagonists of the S1P2 Receptor. [Related pubchem assays: 856, 736 ]. The format is functional.
Test [15] is described as follows: growth suppression of beta-catenin-knockout colon cells, dose response, cell-based, HCT116, human colon tumor (AID 1045).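 Also: HCT116 colon tumor cells with beta catenin knocked out; cells exposed to compound for 60 hours.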 The format is functional.
The nature of test [16]: Vero E6 cell cytotoxicity, dose response, cytotoxicity control for non-replicating M. tuberculosis project, secondary assay (AID 492998). The settings on record: Vero C1008. The format is functional, VeroE6.
Test [17] deals with T1, Zinc finger protein mex-5 (Caenorhabditis elegans, UniProt Q9XUB2).
T1 sequence (Q9XUB2 whole entry): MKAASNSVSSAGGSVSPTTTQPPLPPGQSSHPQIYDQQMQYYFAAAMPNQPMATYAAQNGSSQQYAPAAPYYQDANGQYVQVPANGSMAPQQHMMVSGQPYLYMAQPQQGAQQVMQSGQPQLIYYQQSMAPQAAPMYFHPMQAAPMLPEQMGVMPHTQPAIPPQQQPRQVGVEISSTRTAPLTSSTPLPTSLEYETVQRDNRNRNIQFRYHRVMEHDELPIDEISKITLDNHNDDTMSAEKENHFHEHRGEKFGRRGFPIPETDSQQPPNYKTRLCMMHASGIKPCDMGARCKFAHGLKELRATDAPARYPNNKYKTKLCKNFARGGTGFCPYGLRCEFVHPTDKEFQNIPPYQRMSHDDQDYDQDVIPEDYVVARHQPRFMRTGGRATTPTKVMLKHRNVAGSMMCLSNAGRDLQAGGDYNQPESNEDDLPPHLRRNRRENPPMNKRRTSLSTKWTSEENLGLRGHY
As to the kind of experiment: MEX-5/TCR-2 RNA interaction inhibitors, dose response, biochemical, C. elegans, fluorescence polarization (AID 1960). In general terms: Fluorescence polarisation rises when a labelled molecule tumbles more slowly, as on binding a larger partner.

In the next test the target is Ephrin type-A receptor 4 (Mus musculus, UniProt Q03137). As to the kind of experiment: inhibitors of EphA4 binding to KYL peptide, primary screen, biochemical, colorimetric, mouse EphA4 (AID 689). The format is functional.
In test [18] the target is Eukaryotic translation initiation factor 4E (Mus musculus, UniProt P63073). As to the kind of experiment: eIF4E–eIF4G protein interaction inhibitors, dose response, biochemical, TR-FRET (AID 855).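 Also: potency for disrupting eIF4E binding to eIF4GI seen as loss of FRET.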 The format is functional. (In general: TR-FRET usually uses a lanthanide donor and a delayed reading to cut background.)
For test [19], the target named is T2, RNA-binding protein pos-1 (Caenorhabditis elegans, UniProt G5EF15).
T2 sequence (G5EF15 whole entry): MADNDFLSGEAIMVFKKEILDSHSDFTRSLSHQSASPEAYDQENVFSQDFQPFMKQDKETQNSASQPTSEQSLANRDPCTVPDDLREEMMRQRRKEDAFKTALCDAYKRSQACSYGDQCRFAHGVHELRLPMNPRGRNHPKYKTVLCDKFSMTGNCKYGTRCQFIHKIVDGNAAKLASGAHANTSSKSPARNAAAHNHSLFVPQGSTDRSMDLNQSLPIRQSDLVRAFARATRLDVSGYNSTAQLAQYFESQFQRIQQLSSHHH
As to the kind of experiment: inhibitors of POS-1/mex-3 RNA binding, dose response, biochemical, fluorescence polarization (AID 1964).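 Also: purified POS-1 fused to maltose binding protein made in E. coli; potency of compounds blocking POS-1 binding to fluorescent RNA.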

Test [20] has as its target Induced myeloid leukemia cell differentiation protein Mcl-1 (Homo sapiens, UniProt Q07820). It counts as functional.
The target of the next test is T3, Aminopeptidase N (Plasmodium falciparum FcB1/Columbia, UniProt O96935).
T3 sequence (O96935 whole entry): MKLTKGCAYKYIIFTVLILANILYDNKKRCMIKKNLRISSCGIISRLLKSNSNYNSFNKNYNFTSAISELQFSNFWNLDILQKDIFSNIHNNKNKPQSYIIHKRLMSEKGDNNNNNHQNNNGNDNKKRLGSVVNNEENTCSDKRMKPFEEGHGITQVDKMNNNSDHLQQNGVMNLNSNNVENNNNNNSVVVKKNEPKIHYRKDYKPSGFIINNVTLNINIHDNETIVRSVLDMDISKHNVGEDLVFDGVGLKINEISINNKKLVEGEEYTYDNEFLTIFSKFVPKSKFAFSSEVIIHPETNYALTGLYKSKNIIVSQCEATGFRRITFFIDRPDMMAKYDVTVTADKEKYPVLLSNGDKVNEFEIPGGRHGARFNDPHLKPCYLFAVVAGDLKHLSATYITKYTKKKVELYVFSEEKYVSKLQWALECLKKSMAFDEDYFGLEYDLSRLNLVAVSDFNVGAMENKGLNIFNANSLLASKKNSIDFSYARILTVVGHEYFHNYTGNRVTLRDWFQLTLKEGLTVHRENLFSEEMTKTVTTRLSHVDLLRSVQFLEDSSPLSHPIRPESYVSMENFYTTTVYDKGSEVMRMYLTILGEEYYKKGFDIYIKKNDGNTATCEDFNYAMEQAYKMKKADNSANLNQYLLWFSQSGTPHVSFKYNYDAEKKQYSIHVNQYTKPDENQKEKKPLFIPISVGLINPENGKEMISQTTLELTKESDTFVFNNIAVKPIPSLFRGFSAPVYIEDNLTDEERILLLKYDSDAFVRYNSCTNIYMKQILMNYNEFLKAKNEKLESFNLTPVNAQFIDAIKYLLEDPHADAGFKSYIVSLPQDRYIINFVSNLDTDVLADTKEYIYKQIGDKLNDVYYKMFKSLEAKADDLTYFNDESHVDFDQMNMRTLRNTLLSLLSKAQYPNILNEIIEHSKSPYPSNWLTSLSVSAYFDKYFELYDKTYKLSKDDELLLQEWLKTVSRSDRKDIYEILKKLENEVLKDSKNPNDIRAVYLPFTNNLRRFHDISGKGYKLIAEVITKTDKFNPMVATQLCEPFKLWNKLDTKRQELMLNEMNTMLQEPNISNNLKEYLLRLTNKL
Nature of the test: P. falciparum M1AAP inhibitors, biochemical, fluorogenic H-Leu-NHMec substrate, 1536-well (AID 1445). Further details: species or system Plasmodium falciparum 3D7, 3D7.

Test [21] is described as follows: Late stage counterscreen results from the probe development effort to identify activators of signal transducer and activator of transcription 1 (STAT1): luminescence-based cell-based dose response assay to identify cytotoxic compounds. It counts as functional.
Test [22] has as its target Photoreceptor-specific nuclear receptor (Homo sapiens, UniProt Q9Y5X4). Nature of the test: NR2E3 inverse agonists, dose response, biochemical, TR-FRET (AID 463256). It counts as functional.
In test [23] the target is Peroxisome proliferator-activated receptor gamma/Nuclear receptor corepressor 2 (Homo sapiens, UniProt P37231+Q9Y618). As to the kind of experiment: Counterscreen for NR2E3 inverse agonists: TR-FRET-based biochemical high throughput dose response assay to identify inverse agonists of the interaction between peroxisome proliferator-activated receptor gamma (PPARg) and nuclear receptor co-repressor 2 (NCOR2). The format is functional.

The structures appear in SMILES notation. Calls of active or inactive are those of the source.

Sequence of Cysteine protease ATG4B (Q9Y4P1 whole entry): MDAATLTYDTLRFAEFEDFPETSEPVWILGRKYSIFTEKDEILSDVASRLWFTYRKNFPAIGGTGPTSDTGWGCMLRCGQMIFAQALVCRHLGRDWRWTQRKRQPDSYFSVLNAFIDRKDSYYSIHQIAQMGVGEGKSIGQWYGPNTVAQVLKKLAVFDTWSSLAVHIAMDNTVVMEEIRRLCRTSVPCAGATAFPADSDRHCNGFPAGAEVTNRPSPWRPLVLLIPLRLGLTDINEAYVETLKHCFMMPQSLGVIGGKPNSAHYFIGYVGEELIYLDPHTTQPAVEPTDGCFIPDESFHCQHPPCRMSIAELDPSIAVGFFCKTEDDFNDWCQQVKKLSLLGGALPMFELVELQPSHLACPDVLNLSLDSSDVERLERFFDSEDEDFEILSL
Sequence of Voltage-gated inwardly rectifying potassium channel KCNH2 (Q12809 whole entry): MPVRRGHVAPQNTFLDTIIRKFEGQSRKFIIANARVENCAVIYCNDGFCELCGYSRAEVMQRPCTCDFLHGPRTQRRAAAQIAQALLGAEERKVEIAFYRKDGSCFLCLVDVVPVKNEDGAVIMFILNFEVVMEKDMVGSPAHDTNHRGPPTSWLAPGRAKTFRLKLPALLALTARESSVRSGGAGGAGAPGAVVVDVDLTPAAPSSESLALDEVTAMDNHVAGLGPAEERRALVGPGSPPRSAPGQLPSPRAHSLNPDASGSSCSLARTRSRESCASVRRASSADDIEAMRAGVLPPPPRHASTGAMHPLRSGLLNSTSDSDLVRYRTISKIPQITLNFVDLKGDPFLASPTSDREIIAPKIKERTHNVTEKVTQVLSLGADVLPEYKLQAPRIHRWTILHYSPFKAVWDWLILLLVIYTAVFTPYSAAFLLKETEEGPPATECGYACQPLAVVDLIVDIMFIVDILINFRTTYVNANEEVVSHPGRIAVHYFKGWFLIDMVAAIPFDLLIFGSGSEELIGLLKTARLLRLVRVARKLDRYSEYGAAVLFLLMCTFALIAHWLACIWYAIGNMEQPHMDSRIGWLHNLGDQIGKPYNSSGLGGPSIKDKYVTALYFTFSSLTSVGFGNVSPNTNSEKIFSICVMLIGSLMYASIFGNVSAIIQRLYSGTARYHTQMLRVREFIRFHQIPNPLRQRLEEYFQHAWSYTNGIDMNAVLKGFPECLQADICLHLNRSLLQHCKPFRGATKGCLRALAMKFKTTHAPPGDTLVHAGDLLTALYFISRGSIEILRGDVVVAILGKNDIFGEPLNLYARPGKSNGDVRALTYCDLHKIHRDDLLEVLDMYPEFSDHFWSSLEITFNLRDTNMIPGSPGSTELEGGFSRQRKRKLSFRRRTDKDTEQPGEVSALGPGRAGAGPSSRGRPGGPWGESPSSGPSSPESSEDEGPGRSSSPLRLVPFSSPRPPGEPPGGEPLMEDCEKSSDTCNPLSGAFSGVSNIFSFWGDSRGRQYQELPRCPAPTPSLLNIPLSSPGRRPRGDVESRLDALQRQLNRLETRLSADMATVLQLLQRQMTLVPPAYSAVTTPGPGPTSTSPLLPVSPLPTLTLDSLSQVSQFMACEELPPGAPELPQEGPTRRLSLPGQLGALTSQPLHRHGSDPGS
Sequence of Peroxisome proliferator-activated receptor gamma/Nuclear receptor corepressor 2 (P37231 whole entry): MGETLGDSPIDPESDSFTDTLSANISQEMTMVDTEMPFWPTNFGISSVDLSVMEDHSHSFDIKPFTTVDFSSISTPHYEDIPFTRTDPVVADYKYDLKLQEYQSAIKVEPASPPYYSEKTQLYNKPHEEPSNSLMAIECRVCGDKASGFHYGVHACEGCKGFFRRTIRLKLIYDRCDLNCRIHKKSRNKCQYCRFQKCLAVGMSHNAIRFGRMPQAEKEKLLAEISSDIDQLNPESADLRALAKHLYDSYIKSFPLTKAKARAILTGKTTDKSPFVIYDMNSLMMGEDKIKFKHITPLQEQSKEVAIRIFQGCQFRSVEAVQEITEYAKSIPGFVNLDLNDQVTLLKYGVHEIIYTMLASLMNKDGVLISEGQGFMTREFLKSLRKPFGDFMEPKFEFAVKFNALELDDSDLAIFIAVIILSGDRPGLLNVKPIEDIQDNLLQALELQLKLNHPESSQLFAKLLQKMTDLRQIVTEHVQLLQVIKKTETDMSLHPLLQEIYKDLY
Sequence of Peroxisome proliferator-activated receptor gamma/Nuclear receptor corepressor 2 (Q9Y618 whole entry): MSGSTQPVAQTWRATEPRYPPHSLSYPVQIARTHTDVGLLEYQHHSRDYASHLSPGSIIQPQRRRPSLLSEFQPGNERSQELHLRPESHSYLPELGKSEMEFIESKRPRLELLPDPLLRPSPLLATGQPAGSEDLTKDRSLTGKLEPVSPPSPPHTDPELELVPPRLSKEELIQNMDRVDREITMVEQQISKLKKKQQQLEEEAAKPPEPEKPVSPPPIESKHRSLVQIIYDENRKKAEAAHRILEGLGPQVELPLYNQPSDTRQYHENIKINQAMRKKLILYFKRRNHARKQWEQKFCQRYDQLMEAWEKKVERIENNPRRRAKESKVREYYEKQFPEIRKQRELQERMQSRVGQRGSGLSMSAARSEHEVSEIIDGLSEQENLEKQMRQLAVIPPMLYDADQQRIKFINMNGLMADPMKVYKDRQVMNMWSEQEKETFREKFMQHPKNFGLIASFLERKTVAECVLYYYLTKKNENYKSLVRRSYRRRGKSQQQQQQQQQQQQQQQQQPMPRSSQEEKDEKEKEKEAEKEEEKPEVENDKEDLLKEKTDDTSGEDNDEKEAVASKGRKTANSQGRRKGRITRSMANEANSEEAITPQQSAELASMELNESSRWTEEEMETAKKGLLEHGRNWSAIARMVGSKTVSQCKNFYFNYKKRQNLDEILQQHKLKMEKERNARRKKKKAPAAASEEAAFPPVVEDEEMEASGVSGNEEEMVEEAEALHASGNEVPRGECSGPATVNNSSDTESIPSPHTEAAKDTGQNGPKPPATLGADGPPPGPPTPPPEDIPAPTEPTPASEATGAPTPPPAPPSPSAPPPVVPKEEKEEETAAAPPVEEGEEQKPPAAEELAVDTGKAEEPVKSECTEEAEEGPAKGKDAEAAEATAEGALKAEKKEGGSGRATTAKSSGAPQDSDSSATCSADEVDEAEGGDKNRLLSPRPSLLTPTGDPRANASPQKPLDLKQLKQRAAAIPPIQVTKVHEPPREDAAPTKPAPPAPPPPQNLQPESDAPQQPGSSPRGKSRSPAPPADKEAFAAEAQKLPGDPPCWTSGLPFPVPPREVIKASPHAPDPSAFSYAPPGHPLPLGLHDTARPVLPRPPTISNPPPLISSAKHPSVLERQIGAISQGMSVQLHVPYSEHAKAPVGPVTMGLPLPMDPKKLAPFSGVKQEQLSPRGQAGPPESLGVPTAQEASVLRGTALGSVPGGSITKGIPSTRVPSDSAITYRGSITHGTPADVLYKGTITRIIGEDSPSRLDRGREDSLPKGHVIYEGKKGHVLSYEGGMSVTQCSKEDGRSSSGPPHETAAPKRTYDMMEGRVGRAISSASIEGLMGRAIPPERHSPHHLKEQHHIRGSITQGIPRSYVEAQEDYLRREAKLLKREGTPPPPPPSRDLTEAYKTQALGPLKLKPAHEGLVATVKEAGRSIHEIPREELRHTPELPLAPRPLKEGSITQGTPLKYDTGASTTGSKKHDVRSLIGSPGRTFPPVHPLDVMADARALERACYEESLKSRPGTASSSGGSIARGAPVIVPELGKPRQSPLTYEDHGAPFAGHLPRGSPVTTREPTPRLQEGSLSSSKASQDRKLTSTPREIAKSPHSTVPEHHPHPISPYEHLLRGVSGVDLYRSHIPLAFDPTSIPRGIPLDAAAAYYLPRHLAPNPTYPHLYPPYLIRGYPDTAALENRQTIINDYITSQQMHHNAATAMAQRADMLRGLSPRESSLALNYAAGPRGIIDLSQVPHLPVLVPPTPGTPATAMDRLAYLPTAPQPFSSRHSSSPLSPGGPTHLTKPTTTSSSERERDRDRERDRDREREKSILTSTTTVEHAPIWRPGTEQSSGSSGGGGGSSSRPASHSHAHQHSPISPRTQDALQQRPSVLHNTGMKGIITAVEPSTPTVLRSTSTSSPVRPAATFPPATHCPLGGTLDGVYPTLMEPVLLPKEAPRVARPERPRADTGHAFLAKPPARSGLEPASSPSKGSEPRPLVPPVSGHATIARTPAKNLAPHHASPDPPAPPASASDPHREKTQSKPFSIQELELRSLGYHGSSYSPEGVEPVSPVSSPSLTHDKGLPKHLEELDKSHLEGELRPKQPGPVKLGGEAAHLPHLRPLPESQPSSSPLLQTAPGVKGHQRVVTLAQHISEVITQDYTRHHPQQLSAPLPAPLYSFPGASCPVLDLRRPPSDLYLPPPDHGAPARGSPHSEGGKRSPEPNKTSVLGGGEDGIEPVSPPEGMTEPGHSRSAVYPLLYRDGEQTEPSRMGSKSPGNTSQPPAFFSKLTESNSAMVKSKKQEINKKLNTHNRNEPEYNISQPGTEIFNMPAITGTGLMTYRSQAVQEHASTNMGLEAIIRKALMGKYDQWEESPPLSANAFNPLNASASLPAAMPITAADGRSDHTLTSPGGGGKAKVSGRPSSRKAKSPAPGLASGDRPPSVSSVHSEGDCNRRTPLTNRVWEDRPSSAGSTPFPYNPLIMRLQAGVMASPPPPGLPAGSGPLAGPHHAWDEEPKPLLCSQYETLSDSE
Sequence of Induced myeloid leukemia cell differentiation protein Mcl-1 (Q07820 whole entry): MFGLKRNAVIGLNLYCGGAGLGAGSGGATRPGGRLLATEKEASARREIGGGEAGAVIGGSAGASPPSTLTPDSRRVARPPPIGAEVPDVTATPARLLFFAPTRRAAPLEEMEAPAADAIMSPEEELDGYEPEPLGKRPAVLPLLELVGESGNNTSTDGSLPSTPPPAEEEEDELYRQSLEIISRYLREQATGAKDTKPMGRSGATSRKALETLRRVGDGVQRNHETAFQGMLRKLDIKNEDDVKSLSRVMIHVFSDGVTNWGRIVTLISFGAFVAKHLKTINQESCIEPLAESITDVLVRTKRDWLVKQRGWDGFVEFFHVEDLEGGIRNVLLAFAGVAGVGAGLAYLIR
Sequence of Phospholipase A2 (P04054 whole entry): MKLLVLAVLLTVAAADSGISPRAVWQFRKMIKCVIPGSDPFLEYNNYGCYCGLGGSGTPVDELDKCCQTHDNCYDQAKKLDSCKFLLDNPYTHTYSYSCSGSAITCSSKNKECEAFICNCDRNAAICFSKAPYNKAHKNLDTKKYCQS

With `Cc1ccc(C(=O)CC(=O)c2cc(Cl)ccc2O)cc1`, the 50% inhibitory concentration (IC50) (as a rule, the midpoint of a concentration-inhibition curve) in the test on Vero [1] is 23.8 µM (active); at Cysteine protease ATG4B, 11.1 µM (active); on Phospholipase A2 it was 8 µM (active). Besides, the CC50 (in general, the concentration at which the toxic effect on the cells reaches its halfway point) with Vero [2] is 22.3 µM (active). For the same compound, in test [3], the EC50 (commonly the concentration giving half of the maximal effect) was 3.02 µM (active).
`O=S1(=O)C=C(Sc2nc3cc(Cl)ccc3o2)c2ccccc21`: the EC50 in test [4] was 0.818 µM (active); in [5] it was 1.58 µM (active); in test [7] it was 4.03 µM (active); in test [8], 9.45 µM (active); in test [9], 4.03 µM (active); in [15] it was 3.65 µM (active). The values for the cytotoxic concentration (CC50) in test [6] and in test [16] were 8.54 µM (active) and 5.94 µM (active), respectively. Also, the IC50 is 1.57 µM (active) in the test “cells”, 54.3 µM (inactive) in test [10] and 3.47 µM (active) in test [14]. For the same compound, the AC50 (in general, the concentration giving half of the maximal activity seen) in test [11] is 18.4 µM (active); in test [12], 4.15 µM (active); in test [13] it was < 0.26 µM (active).
As for `CCOC(=O)c1cc(-c2ccc(/C=C3/C(=O)NC(=O)C(C#N)=C3C)o2)ccc1Cl`, the EC50 in test [17] is 17.4 µM (active); in test [19] it was 19.9 µM (active). Further, the IC50 on Ephrin type-A receptor 4 is 2.53 µM (active); in test [18] it was 23.4 µM (active); in [20], 0.752 µM (active); on Aminopeptidase N, 80.1 µM (active).
In the case of `CCOC(=O)/C(C#N)=C/c1cc(C)n(-c2ccccc2)c1C`, the IC50 in [21] was > 55.7 µM (not active).
As for `Cn1c(SCC(=O)c2ccc3c(c2)Cc2ccccc2-3)nnc1-c1ccccc1`, the values for the IC50 in test [22] and in test [23] were 3.82 µM (active) and 4.12 µM (active), respectively.
